From patent publication US20240124442A1, “TRICYCLIC-AMIDO-BICYCLIC PRMT5 INHIBITORS” (AMGEN INC., priority 2021, published 2024)

Experiments:
HCT116 MTAP null cells = assay: HCT116 MTAP null cell line proliferation / cell viability (CellTiter-Glo, 6 days); type: cell-based; settings: 144 h; HCT116 MTAP null cells, 6 days treatment, CellTiter-Glo cell viability; read-out: HCT-116 MTAP null IC50
Description: (§1) HCT116 Proliferation Activity
(§2) To assess selective anti-proliferative activity of compounds of the invention in cells that have loss expression of MTAP, an HCT-116 isogenic cell line pair was utilized where one cell line was engineered to genetically knockout both MTAP alleles. Cell viability was then assessed in both the parent HCT-116 cell line and the MTAP null cell line after 6 days of treatment with compounds of the present invention. Selective anti-proliferative activity in the MTAP null cell line indicates MTA-cooperative inhibition of PRMT5 and ability to inhibit growth of cancer cells that have loss of MTAP.
(§3) HCT116 MTAP null and WT cells were seeded in 96-well tissue culture plates in RPMI 1640 media+10% fetal bovine serum. Plates were incubated overnight at 37° C. and 5% CO2. Cells were then treated with an 8- or 9-point serial dilution of compound, using a top concentration of 1, or 10 μM, 1:3 serial dilution steps and, a DMSO-only control. Cells were incubated in the presence of drug for 6 days. Effects on cell viability were measured with the CellTiter-Glo® Luminescent Cell Viability Assay (Promega) per manufacturer's recommendation. Assay plates were read on an EnVision™ Multilabel Reader using the Ultra-Sensitive luminescence module. IC50 values were calculated with GraphPad Prism v 5.01 using symmetrical sigmoidal dose-response least squares fit with Hill slope fixed to −1 and top constrain to 100% or GeneData Screener using a 4-parameter logistic model to fit dose response curves.
(§4) Alternatively, compounds could be assayed with a 384 well plate format:
(§5) Compounds were pre-spotted into 384 well plates with a 22-point serial dilution of compound, using a top concentration of 10 or 50 μM, 1:2 serial dilution steps and, a DMSO-only control. HCT116 MTAP null and WT cells were then seeded as above and after 6 days effects on cell viability were measured with the CellTiter-Glo® Luminescent Cell Viability Assay (Promega). Assay plates were read as above and IC50 values were calculated with GeneData Screener using a 4-parameter logistic model to fit dose response curves. The reported IC50 represents the value where the curve transits 50% of control.

HCT116 WT cells = assay: HCT116 WT (parent) cell line proliferation / cell viability (CellTiter-Glo, 6 days); type: cell-based; settings: Homo sapiens, HCT-116, 144 h, 6 days treatment
Description: as §1, §2, §3, §4, §5

| Structure (SMILES) | IC50 (HCT116 MTAP null cells) | IC50 (HCT116 WT cells) |
| --- | --- | --- |
| Cc1nc2nc(N)c3cnn(C)c3c2cc1C(=O)N(C)[C@@H]1COc2cc(C(F)(F)F)ccc21 [Example 251, 4-amino-N,1,7-trimethyl-N-((3S)-6-(trifluoromethyl)-2,3-dihydro-1-benzofuran-3-yl)-1H-pyrazolo[4,3-c][1,8]-naphthyridine-8-carboxamide] | 7 nM | 217 nM |
| CN(C(=O)c1cc2c(cc1F)nc(N)c1cnn(C)c12)[C@H]1COc2cc(Cl)c(Cl)cc21 [Example 477, 4-amino-N-((3R)-5,6-dichloro-2,3-dihydro-1-benzofuran-3-yl)-7-fluoro-N,1-dimethyl-1H-pyrazolo[4,3-c]quinoline-8-carboxamide] | 92 nM | 2530 nM |
| COc1ccc2c(n1)COC[C@H]2N(C)C(=O)c1ccc2nc(N)c3cnn(C)c3c2c1 [Example 283, 4-amino-N-((5S)-2-methoxy-5,8-dihydro-6H-pyrano[3,4-b]-pyridin-5-yl)-N,1-dimethyl-1H-pyrazolo[4,3-c]quinoline-8-carboxamide] | 21 nM | 1360 nM |
| Cn1ncc2c3cc(C(=O)N(C4CC4)[C@@H]4COCc5nc(C(F)(F)F)ccc54)c(F)cc3nc(N)c21 [Example 516, 4-amino-N-cyclopropyl-7-fluoro-3-methyl-N-((5S)-2-(trifluoromethyl)-5,8-dihydro-6H-pyrano[3,4-b]pyridin-5-yl)-3H-pyrazolo[3,4-c]quinoline-8-carboxamide] | 105 nM | 6520 nM |
| CN(C(=O)c1cc2c(cc1F)nc(N)c1cnn(C)c12)[C@H]1COCc2cc(C#N)ccc21 (single isomer, unassigned) [Example 596] | 185 nM | 17100 nM |
| CN(C(=O)c1cc2c(cc1F)nc(N)c1cnn(C)c12)[C@@H]1COCc2cc(C(F)(F)F)ncc21 [Example 292, 4-amino-7-fluoro-N,1-dimethyl-N-((4S)-7-(trifluoromethyl)-3,4-dihydro-1H-pyrano[4,3-c]pyr-idin-4-yl)-1H-pyrazolo[4,3-c]-quinoline-8-carboxamide] | 7 nM | 224 nM |
| CN(C(=O)c1ccc2nc(N)c3cnn(C)c3c2c1)[C@@H]1COc2cc(-c3cn[nH]c3)ccc21 [Example 622, (S)—N-(6-(1H-pyrazol-4-yl)-2,3-dihydrobenzofuran-3-yl)-4-amino-N,1-dimethyl-1H-pyrazolo[4,3-c]quinoline-8-carboxamide] | 14 nM | 877 nM |
| CN(C(=O)c1ccc2nc(N)c3c(c2c1)COC3)[C@@H]1CCc2cc(OC(F)(F)F)ccc21 (single isomer, unassigned) [Example 531] | 113 nM | 4860 nM |
| CN(C(=O)c1ccc2nc(N)c3c(c2c1)COC3)C1COc2cc(C3=CCN(C(=O)OC(C)(C)C)CC3)ccc21 (racemic) [Example 614, 2-methyl-2-propanyl 4-((3R)-3-(((4-amino-1,3-dihydrofuro[3,4-c]quinolin-8-yl)carbonyl)(methyl)amino)-2,3-dihydro-1-benzofuran-6-yl)-3,6-dihydro-1(2H)-pyridinecarboxylate and 2-methyl-2-propanyl 4-((3S)-3-(((4-amino-1,3-dihydrofuro[3,4-c]quinolin-8-yl)carbonyl)(methyl)amino)-2,3-dihydro-1-benzofuran-6-yl)-3,6-dihydro-1(2H)-pyridinecarboxylate] | 127 nM | 1360 nM |
| CN(C(=O)c1cnc2nc(N)c3c(c2c1)COC3)[C@H]1COCc2cc(Br)ccc21 (single isomer, unassigned) [Example 589] | 7950 nM | 34700 nM |
| CCN(C(=O)c1ccc2nc(N)c3cnn(C)c3c2c1)C1COc2cc(C(F)(F)F)ccc21 (racemic) [Example 228, 4-amino-N-ethyl-1-methyl-N-((3R)-6-(trifluoromethyl)-2,3-dihydro-1-benzofuran-3-yl)-1H-pyrazolo[4,3-c]quinoline-8-carboxamide and 4-amino-N-ethyl-1-methyl-N-((3S)-6-(trifluoromethyl)-2,3-dihydro-1-benzofuran-3-yl)-1H-pyrazolo[4,3-c]quinoline-8-carboxamide] | 7 nM | 683 nM |
| CN(C(=O)c1ccc2nc(N)c3c(cnn3C)c2c1)[C@H]1COc2cc(C(F)(F)F)ccc21 (single isomer, unassigned) [Example 576] | 4920 nM | 13200 nM |
| CN(C(=O)c1cc2c(cc1Cl)nc(N)c1cnn(C)c12)[C@]1(C)CCc2nc(C(F)(F)F)ccc21 (single isomer, unassigned) [Example 384] | 869 nM | 17200 nM |
| Cc1nn(C)c2c1c(N)nc1cnc(C(=O)N(C)[C@@H]3COCc4nc(C(F)(F)F)ccc43)cc12 [Example 312, 4-amino-N,1,3-trimethyl-N-((5S)-2-(trifluoromethyl)-5,8-dihydro-6H-pyrano[3,4-b]-pyridin-5-yl)-1H-pyrazolo-[4,3-c][1,7]naphthyridine-8-carboxamide] | 103 nM | 9480 nM |
| CN(C(=O)c1cc2c(cc1F)nc(N)c1cnn(C)c12)[C@@H]1COc2cc(Cl)c(Cl)cc21 [Example 476, 4-amino-N-((3S)-5,6-dichloro-2,3-dihydro-1-benzofuran-3-yl)-7-fluoro-N,1-dimethyl-1H-pyrazolo[4,3-c]quinoline-8-carboxamide] | 6 nM | 125 nM |
| Cc1ccc2c(n1)COC[C@H]2N(C)C(=O)c1ccc2nc(N)c3cnn(C)c3c2c1 [Example 679, (S)-4-amino-N,1-dimethyl-N-(2-methyl-5,8-dihydro-6H-pyrano[3,4-b]pyridin-5-yl)-1H-pyrazolo[4,3-c]quinoline-8-carboxamide] | 26 nM | 2270 nM |

The remaining lines, values ahead:

| IC50 (HCT116 MTAP null cells) | IC50 (HCT116 WT cells) | Structure (SMILES) |
| --- | --- | --- |
| 875 nM | 2510 nM | CN(C(=O)c1cc2c3c(c(N)nc2cc1F)COC3)[C@H]1COCc2cc(-c3ccc(C(F)(F)F)cc3)ccc21 (single isomer, unassigned) [Example 665] |
| 1040 nM | 11300 nM | CN(C(=O)c1cc2c3c(c(N)nc2cc1F)COC3)[C@H]1COc2cc(C(F)(F)F)cc(F)c21 (single isomer, unassigned) [Example 356] |
| 33 nM | 2640 nM | CN(C(=O)c1ccc2nc(N)c3c(c2c1)COC3)[C@@H]1COc2cc(C3=CCOCC3)ccc21 (single isomer, unassigned) [Example 612] |
| 383 nM | 7060 nM | CN(C(=O)c1cc2c3c(c(N)nc2cc1F)COC3)[C@@H]1COc2cc(-c3ccc(S(F)(F)(F)(F)F)cc3)ccc21 [Example 667, 4-amino-7-fluoro-N-methyl-N-((3S)-6-(4-(pentafluoro-lambda~6 ~- sulfanyl)phenyl)-2,3-dihydro-1-benzofuran-3-yl)-1,3-dihydrofuro[3,4-c]quinoline-8-carboxamide] |
| 63 nM | 3770 nM | CN(C(=O)c1cc2c3c(c(N)nc2cn1)COC3)[C@@H]1COc2cc(-c3cnn(C(F)(F)F)c3)ccc21 [Example 457, 4-amino-N-methyl-N-((3S)-6-(1-(trifluoromethyl)-1H-pyrazol-4-yl)-2,3-dihydro-1-benzofuran-3-yl)-1,3-dihydrofuro[3,4-c][1,7]naphthyridine-8-carboxamide] |
| 101 nM | 4540 nM | CC(=O)N1CC=C(c2ccc3c(c2)OCC3N(C)C(=O)c2ccc3nc(N)c4c(c3c2)COC4)CC1 (centres unmarked) [Example 689, N-(6-(1-acetyl-1,2,3,6-tetrahydropyridin-4-yl)-2,3-dihydrobenzofuran-3-yl)-4-amino-N-methyl-1,3-dihydrofuro[3,4-c]quinoline-8-carboxamide] |
| 724 nM | 24900 nM | CN=S(C)(=O)c1ccc2c(c1)OC[C@H]2N(C)C(=O)c1ccc2nc(N)c3c(c2c1)COC3 (mixture of isomers) [Example 447, 4-amino-N-((3S)-6-((R)-N,S-dimethylsulfonimidoyl)-2,3-dihydro-1-benzofuran-3-yl)-N-methyl-1,3-dihydrofuro[3,4-c]quinoline-8-carboxamide and 4-amino-N-((3S)-6-((S)-N,S-dimethylsulfonimidoyl)-2,3-dihydro-1-benzofuran-3-yl)-N-methyl-1,3-dihydrofuro[3,4-c]quinoline-8-carboxamide] |
| 15 nM | 386 nM | C[C@H]1OCc2c1c(N)nc1cc(F)c(C(=O)N(C)[C@@H]3COCc4nc(C(F)(F)F)ccc43)cc21 [Example 495, (3R)-4-amino-7-fluoro-N,3-dimethyl-N-((5S)-2-(trifluoromethyl)-5,8-dihydro-6H-pyrano[3,4-b]pyridin-5-yl)-1,3-dihydrofuro[3,4-c]quinoline-8-carboxamide] |
| 6010 nM | 37000 nM | CN(C(=O)c1cc2c3c(c(N)nc2cn1)COC3)[C@H]1COc2cc(Br)ccc21 (single isomer, unassigned) [Example 346] |
